Converted amounts (≈) assume the structure as drawn. The source made the active and inactive calls. The rule behind the calls is not given here.
Assays:
[1] = test system: Mycobacterium tuberculosis; assay: Antitubercular activity against Mycobacterium tuberculosis mc2 6230 assessed as inhibition of bacterial growth incubated for 5 days by REMA; assay type: functional; conditions: mc2 6230, 120 h, time 5 day
[2] = biological target: NAD(P)H dehydrogenase [quinone] 1 (Mus musculus) (UniProt Q64669); assay: Induction of quinone reductase activity in mouse Hepa1c1c7 cells at 10 uM incubated for 24 hrs by MTT based assay; assay type: cell-based; conditions: filed as activator
Chain of NAD(P)H dehydrogenase [quinone] 1 (Mus musculus) (Q64669 whole entry): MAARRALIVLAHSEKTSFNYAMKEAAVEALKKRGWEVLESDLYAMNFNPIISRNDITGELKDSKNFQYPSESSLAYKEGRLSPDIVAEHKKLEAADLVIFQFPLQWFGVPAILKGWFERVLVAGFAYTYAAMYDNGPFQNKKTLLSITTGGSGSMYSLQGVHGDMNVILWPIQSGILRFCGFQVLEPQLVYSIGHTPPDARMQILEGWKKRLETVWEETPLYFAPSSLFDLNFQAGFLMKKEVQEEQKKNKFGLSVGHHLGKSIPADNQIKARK

[3] = Cytotoxicity against mouse Hepa1c1c7 cells at higher concentration; assay type: cell-based
[4] = test system: Staphylococcus aureus; assay: Antibacterial activity against Staphylococcus aureus; assay type: functional, organism-based
[5] = test system: Enterococcus faecalis; assay: Antibacterial activity against Enterococcus faecalis; assay type: functional, organism-based
[6] = test system: Enterococcus faecium; assay: Antibacterial activity against Enterococcus faecium; assay type: functional, organism-based
[7] = test system: Klebsiella pneumoniae; assay: Antibacterial activity against Klebsiella pneumoniae; assay type: functional, organism-based
[8] = test system: Salmonella enterica; assay: Antibacterial activity against Salmonella enterica; assay type: functional, organism-based
[9] = test system: Escherichia coli; assay: Antibacterial activity against Escherichia coli; assay type: functional, organism-based
[10] = test system: Aspergillus fumigatus; assay: […] activity against Aspergillus fumigatus; assay type: functional, organism-based
[11] = test system: Trichophyton rubrum; assay: […] activity against Trichophyton rubrum; assay type: functional, organism-based
[12] = test system: Trichophyton mentagrophytes; assay: […] activity against Trichophyton mentagrophytes; assay type: functional, organism-based
[13] = test system: Candida albicans; assay: […] activity against Candida albicans; assay type: functional, organism-based

CC[C@@H](CO)NCCN[C@@H](CC)CO [ETHAMBUTOL]
MIC50 [1]: 0.83 µg/mL (≈ 4.06 µM)

NNC(=O)c1ccncc1 [ISONIAZID]
MIC50 [1]: 0.03 µg/mL (≈ 0.219 µM)

CC(C)C/C=C/C=C/c1ccccc1/C=C/C(=O)N[C@H](C)C(=O)N[C@@H]1COC(=O)[C@H]([C@H](C)C(=O)O)NC(=O)[C@H](CNC(=O)[C@@H](N)C(C)C)NC(=O)[C@H](C(C)C)NC(=O)[C@@H](CC(C)C)NC1=O
fold change (FC) [2]: 2.3 | Activity [3]: Toxic | Activity [4]: inactive | Activity [5]: inactive | Activity [6]: inactive | Activity [7]: inactive | Activity [8]: inactive | Activity [9]: inactive | Activity [10]: inactive | Activity [11]: inactive | Activity [12]: inactive | Activity [13]: inactive

C/C=C/C=C/C/C=C\c1ccccc1/C=C/C(=O)NC(C)C(=O)N[C@@H]1COC(=O)[C@H]([C@H](C)C(=O)O)NC(=O)[C@H](CNC(=O)C(N)C(C)C)NC(=O)[C@H](C(C)C)NC(=O)[C@@H](CC(C)C)NC1=O (some centres undefined)
fold change (FC) [2]: 2.6

CC(C)/C=C/C/C=C\c1ccccc1/C=C/C(=O)N[C@H](C)C(=O)N[C@@H]1COC(=O)[C@H]([C@H](C)C(=O)O)NC(=O)[C@H](CNC(=O)[C@@H](N)C(C)C)NC(=O)[C@H](C(C)C)NC(=O)[C@@H](CC(C)C)NC1=O
MIC50 [1]: 82.8 µg/mL (≈ 89.7 µM) | fold change (FC) [2]: 2.4 | Activity [3]: Toxic | Activity [4]: inactive | Activity [5]: inactive | Activity [6]: inactive | Activity [7]: inactive | Activity [8]: inactive | Activity [9]: inactive | Activity [10]: inactive | Activity [11]: inactive | Activity [12]: inactive | Activity [13]: inactive

C/C=C/C=C/C=C/c1ccccc1/C=C/C(=O)NC(C)C(=O)N[C@@H]1COC(=O)[C@H]([C@H](C)C(=O)O)NC(=O)[C@H](CNC(=O)C(N)C(C)C)NC(=O)[C@H](C(C)C)NC(=O)[C@@H](CC(C)C)NC1=O (some centres undefined)
fold change (FC) [2]: 2.1
